Measurements as given in patent US20240398828A1, “HETERO-ATOM CONTAINING COMPOUNDS AND USES THEREOF” (Kumquat Biosciences Inc., priority 2021, published 2024).

Assays:
PTPN2 (i.e., TC-PTP) = biological target: T1, PTPN2 (i.e., TC-PTP) (Homo sapiens, UniProt P17706); assay: Phosphatase activity assay (DiFMUP substrate), PTPN2; type: biochemical; details: compounds binned ≤1 uM or >1 uM
T1 sequence (P17706 1-415): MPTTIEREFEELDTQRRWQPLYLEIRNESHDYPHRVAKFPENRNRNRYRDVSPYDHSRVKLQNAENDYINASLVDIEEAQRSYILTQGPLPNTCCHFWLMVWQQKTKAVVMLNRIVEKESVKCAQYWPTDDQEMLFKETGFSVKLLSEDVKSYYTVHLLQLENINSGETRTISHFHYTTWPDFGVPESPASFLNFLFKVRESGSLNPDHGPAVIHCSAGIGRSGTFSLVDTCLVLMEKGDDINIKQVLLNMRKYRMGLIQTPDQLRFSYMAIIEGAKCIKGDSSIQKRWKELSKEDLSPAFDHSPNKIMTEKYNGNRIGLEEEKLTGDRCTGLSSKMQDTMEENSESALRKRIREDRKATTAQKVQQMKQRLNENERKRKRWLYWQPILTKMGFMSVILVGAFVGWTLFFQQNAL
Procedure: (§1) The selectivity and potency of a small molecule PTPN2 inhibitor as provided herein against one or more protein tyrosine phosphatase (PTP) enzymes, and specifically against PTPN2, is assessed in various ways. The one or more PTP enzymes comprise Mycobacterium protein tyrosine phosphatase A (mPTPA), Mycobacterium protein tyrosine phosphatase B (mPTPB), PTPN1 (i.e., PTP1B), PTPN2 (i.e., TC-PTP), PTPN22 (i.e., LYP), SHP-1, SHP-2, FAP-1, Meg2, HePTP, Laforin, VHX, VHR, LMWPTP, Cdc14A, LAR, CD45, PTPRG, a fragment thereof, a variant thereof, and a combination thereof. Selectivity and potency of a small molecule PTPN2 inhibitor is evaluated using a PTP activity inhibition assay. The assay is performed using a buffer comprising 50 mM HEPES buffer pH 7.5, 150 mM NaCl, 0.5 mM EDTA, 1 mM DTT, 0.001% Tween-20.
(§2) The assay is performed using a phosphated substrate, e.g., 10 mM 6,8-Difluoro-4-Methylumbelliferyl Phosphate (DIFMUP) that is stored at −20° C. Alternatively or in addition to, the assay is performed using other phosphated substrate (e.g., fluorescein diphosphate). Each PTP enzyme is diluted in the assay buffer
(§3) The assay can be carried out at room temperature in multiplate format, e.g., using 384 well plates. A small molecule PTPN2 inhibitor dissolved in DMSO at one of 10 concentrations from a serial dilution or DMSO alone for control is added to each well. A mixture of the assay buffer comprising PTP enzyme (e.g., 0.025 ng/ul PTPN2) is added to each well and mixed for approximately 2 minutes. The reaction is initiated by adding DiFMUP diluted in the assay buffer to a final concentration of approximately 45 μM DiFMUP in PTPN2 assay. For each PTP enzyme, DiFMUP is added at the Km (Michaelis constant) of the enzyme that had been independently determined. The phosphatase activity of the PTP enzyme is assessed by monitoring appearance of a fluorescent product (6,8-difluoro-7-hydroxyl-4-coumarin (DiFMU) from DiFMUP) continuously for about 15 to 30 minutes, using the INFINITE M1000Pro plate reader (Tecan) with excitation at 360 nm and emission at 450 nm (cutoff filter at 435 nm) for DiFMU. Each assay is performed at least in duplicate. The rate (e.g., the initial rate) of DiFMU formation is plotted against the concentration of the small molecule PTPN2 inhibitor, and the data is fitted (e.g., using a 4-parameter equation) to determine the inflection point of the fit as the IC50 of the small molecule PTPN2 inhibitor for a specific enzyme. Utilizing this assay, the ability of the compounds in Table 2 to inhibit PTPN2 and PTP1B has been assessed. Table 3 summarizes the IC50 values.

PTPN1 (i.e., PTP1B) = biological target: T2, PTPN1 (i.e., PTP1B) (Homo sapiens, UniProt P18031); assay: Phosphatase activity assay (DiFMUP substrate), PTP1B; type: biochemical; details: compounds binned ≤1 uM or >1 uM
T2 sequence (P18031 1-435): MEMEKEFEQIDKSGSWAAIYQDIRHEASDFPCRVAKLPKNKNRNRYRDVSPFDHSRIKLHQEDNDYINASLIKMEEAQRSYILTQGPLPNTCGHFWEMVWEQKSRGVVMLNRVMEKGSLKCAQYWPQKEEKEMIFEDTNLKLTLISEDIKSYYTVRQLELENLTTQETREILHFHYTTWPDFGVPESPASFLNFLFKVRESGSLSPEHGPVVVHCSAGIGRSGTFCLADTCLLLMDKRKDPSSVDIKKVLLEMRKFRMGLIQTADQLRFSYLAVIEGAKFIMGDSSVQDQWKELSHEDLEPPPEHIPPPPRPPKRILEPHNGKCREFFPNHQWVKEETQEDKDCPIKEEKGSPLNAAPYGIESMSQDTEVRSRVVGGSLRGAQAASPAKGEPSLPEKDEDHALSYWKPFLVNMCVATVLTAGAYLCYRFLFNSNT
Procedure: as §1, §2, §3

SMILES | IC50 (PTPN2 (i.e., TC-PTP)) [nM] | IC50 (PTPN1 (i.e., PTP1B)) [nM]
O=C1CN(c2c(O)ccc(-c3cnn(C4CCCC4)c3)c2F)S(=O)(=O)N1 [Compound 123, 5-(3-(1-cyclopentyl-1H-pyrazol-4-yl)-2-fluoro-6-hydroxyphenyl)-1,2,5-thiadiazolidin-3-one 1,1-dioxide] | ≤ 1000 | ≤ 1000
O=C1CN(c2c(O)ccc(-c3cc(-c4ccccc4)n[nH]3)c2F)S(=O)(=O)N1 [Compound 124, 5-(2-fluoro-6-hydroxy-3-(3-phenyl-1H-pyrazol-5-yl)phenyl)-1,2,5-thiadiazolidin-3-one 1,1-dioxide] | ≤ 1000 | ≤ 1000
CC(C)CCn1ccc(-c2ccc(O)c(N3CC(=O)NS3(=O)=O)c2F)c1 [Compound 125, 5-(2-fluoro-6-hydroxy-3-(1-isopentyl-1H-pyrrol-3-yl)phenyl)-1,2,5-thiadiazolidin-3-one 1,1-dioxide] | ≤ 1000 | ≤ 1000
Cc1ccc(-c2ccc(O)c(N3CC(=O)NS3(=O)=O)c2F)o1 [Compound 126, 5-(2-fluoro-6-hydroxy-3-(5-methylfuran-2-yl)phenyl)-1,2,5-thiadiazolidin-3-one 1,1-dioxide] | ≤ 1000 | ≤ 1000
COc1cccc(Cn2cc(-c3ccc(O)c(N4CC(=O)NS4(=O)=O)c3F)cn2)c1 [Compound 127, 5-(2-fluoro-6-hydroxy-3-(1-(3-methoxybenzyl)-1H-pyrazol-4-yl)phenyl)-1,2,5-thiadiazolidin-3-one 1,1-dioxide] | ≤ 1000 | ≤ 1000
Cc1ccc(-c2ccc(O)c(N3CC(=O)NS3(=O)=O)c2F)s1 [Compound 128, 5-(2-fluoro-6-hydroxy-3-(5-methylthiophen-2-yl)phenyl)-1,2,5-thiadiazolidin-3-one 1,1-dioxide] | ≤ 1000 | ≤ 1000
O=C1CN(c2c(O)ccc(-c3cc[nH]c3)c2F)S(=O)(=O)N1 [Compound 129, 5-(2-fluoro-6-hydroxy-3-(1H-pyrrol-3-yl)phenyl)-1,2,5-thiadiazolidin-3-one 1,1-dioxide] | ≤ 1000 | ≤ 1000
N#CCn1cc(-c2ccc(O)c(N3CC(=O)NS3(=O)=O)c2F)cn1 [Compound 130, 2-(4-(3-(1,1-dioxido-4-oxo-1,2,5-thiadiazolidin-2-yl)-2-fluoro-4-hydroxyphenyl)-1H-pyrazol-1-yl)acetonitrile] | ≤ 1000 | ≤ 1000
O=C1CN(c2c(O)ccc(-c3cnn(CC4CC4)c3)c2F)S(=O)(=O)N1 [Compound 131, 5-(3-(1-(cyclopropylmethyl)-1H-pyrazol-4-yl)-2-fluoro-6-hydroxyphenyl)-1,2,5-thiadiazolidin-3-one 1,1-dioxide] | ≤ 1000 | ≤ 1000
CC(C)CCn1cc(-c2ccc(O)c(N3CC(=O)NS3(=O)=O)c2)cn1 [Compound 132, 5-(2-hydroxy-5-(1-isopentyl-1H-pyrazol-4-yl)phenyl)-1,2,5-thiadiazolidin-3-one 1,1-dioxide] | ≤ 1000 | ≤ 1000
O=C1CN(c2c(O)ccc(-c3cnn(C4CC4)c3)c2F)S(=O)(=O)N1 [Compound 133, 5-(3-(1-cyclopropyl-1H-pyrazol-4-yl)-2-fluoro-6-hydroxyphenyl)-1,2,5-thiadiazolidin-3-one 1,1-dioxide] | ≤ 1000 | ≤ 1000
CC(C)CCn1cc(-c2ccc(O)c(N3CC(=O)NS3(=O)=O)n2)cn1 [Compound 134, 5-(3-hydroxy-6-(1-isopentyl-1H-pyrazol-4-yl)pyridin-2-yl)-1,2,5-thiadiazolidin-3-one 1,1-dioxide] | > 1000 | > 1000
Nc1nc2ccc(-c3ccc(O)c(N4CC(=O)NS4(=O)=O)c3F)cc2s1 [Compound 135, 5-(3-(2-aminobenzo[d]thiazol-6-yl)-2-fluoro-6-hydroxyphenyl)-1,2,5-thiadiazolidin-3-one 1,1-dioxide] | ≤ 1000 | ≤ 1000
O=C1CN(c2c(O)ccc(-c3ccnc(-c4ccccc4)c3)c2F)S(=O)(=O)N1 [Compound 136, 5-(2-fluoro-6-hydroxy-3-(2-phenylpyridin-4-yl)phenyl)-1,2,5-thiadiazolidin-3-one 1,1-dioxide] | > 1000 | ≤ 1000
CC(C)CNc1cccc(-c2ccc(O)c(N3CC(=O)NS3(=O)=O)c2F)c1 [Compound 137, 5-(2-fluoro-4-hydroxy-3′-(isobutylamino)-[1,1′-biphenyl]-3-yl)-1,2,5-thiadiazolidin-3-one 1,1-dioxide] | ≤ 1000 | ≤ 1000
O=C1CN(c2c(O)ccc(-c3ccc4cccnc4c3)c2F)S(=O)(=O)N1 [Compound 138, 5-(2-fluoro-6-hydroxy-3-(quinolin-7-yl)phenyl)-1,2,5-thiadiazolidin-3-one 1,1-dioxide] | ≤ 1000 | ≤ 1000
Cc1ncc(-c2ccc(O)c(N3CC(=O)NS3(=O)=O)c2F)cn1 [Compound 139, 5-(2-fluoro-6-hydroxy-3-(2-methylpyrimidin-5-yl)phenyl)-1,2,5-thiadiazolidin-3-one 1,1-dioxide] | ≤ 1000 | ≤ 1000
O=C1CN(c2c(O)ccc(-c3cnn(CCO)c3)c2F)S(=O)(=O)N1 [Compound 140, 5-(2-fluoro-6-hydroxy-3-(1-(2-hydroxyethyl)-1H-pyrazol-4-yl)phenyl)-1,2,5-thiadiazolidin-3-one 1,1-dioxide] | ≤ 1000 | ≤ 1000
Cc1nn(C)cc1-c1ccc(O)c(N2CC(=O)NS2(=O)=O)c1F [Compound 142, 5-(3-(1,3-dimethyl-1H-pyrazol-4-yl)-2-fluoro-6-hydroxyphenyl)-1,2,5-thiadiazolidin-3-one 1,1-dioxide] | ≤ 1000 | ≤ 1000
O=C1CN(c2c(O)ccc(-c3ccc(OCc4ccccc4)nc3)c2F)S(=O)(=O)N1 [Compound 143, 5-(3-(6-(benzyloxy)pyridin-3-yl)-2-fluoro-6-hydroxyphenyl)-1,2,5-thiadiazolidin-3-one 1,1-dioxide] | ≤ 1000 | ≤ 1000
N#Cc1ccc(-c2ccc(O)c(N3CC(=O)NS3(=O)=O)c2F)cn1 [Compound 144, 5-(3-(1,1-dioxido-4-oxo-1,2,5-thiadiazolidin-2-yl)-2-fluoro-4-hydroxyphenyl)picolinonitrile] | ≤ 1000 | ≤ 1000
Cc1cc(-c2cnn(CCC(C)C)c2)cc(N2CC(=O)NS2(=O)=O)c1O [Compound 145, 5-(2-hydroxy-5-(1-isopentyl-1H-pyrazol-4-yl)-3-methylphenyl)-1,2,5-thiadiazolidin-3-one 1,1-dioxide] | > 1000 | > 1000
O=C1CN(c2c(O)ccc(-c3cnn(-c4ccccc4)c3)c2F)S(=O)(=O)N1 [Compound 147, 5-(2-fluoro-6-hydroxy-3-(1-phenyl-1H-pyrazol-4-yl)phenyl)-1,2,5-thiadiazolidin-3-one 1,1-dioxide] | ≤ 1000 | ≤ 1000
